Experimental data from ChEMBL document CHEMBL1201862, “PubChem BioAssay data set” (2004).
Activity calls are given as the source filed them.

Columns and labels:
[1] = target: Disintegrin and metalloproteinase domain-containing protein 17 (Homo sapiens, UniProt P78536); assay: exosite inhibitors of ADAM17, dose response, biochemical (AID 743260)
[2] = ADAM10 protease inhibitors, dose response, selectivity assay for ADAM17 exosite inhibitor project, biochemical, FRET peptide substrate, recombinant human ADAM10 (AID 743259);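 further: ADAM10 enzyme cleaving a FRET peptide substrate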
[3] = target: RNA-editing ligase 1, mitochondrial (Trypanosoma brucei brucei, UniProt P86926); assay: TbREL1 ligase inhibitors, dose response, biochemical, fluorescence, Trypanosoma brucei (AID 1117295); type: functional
Sequence of RNA-editing ligase 1, mitochondrial (P86926 whole entry, the tested form may be a part): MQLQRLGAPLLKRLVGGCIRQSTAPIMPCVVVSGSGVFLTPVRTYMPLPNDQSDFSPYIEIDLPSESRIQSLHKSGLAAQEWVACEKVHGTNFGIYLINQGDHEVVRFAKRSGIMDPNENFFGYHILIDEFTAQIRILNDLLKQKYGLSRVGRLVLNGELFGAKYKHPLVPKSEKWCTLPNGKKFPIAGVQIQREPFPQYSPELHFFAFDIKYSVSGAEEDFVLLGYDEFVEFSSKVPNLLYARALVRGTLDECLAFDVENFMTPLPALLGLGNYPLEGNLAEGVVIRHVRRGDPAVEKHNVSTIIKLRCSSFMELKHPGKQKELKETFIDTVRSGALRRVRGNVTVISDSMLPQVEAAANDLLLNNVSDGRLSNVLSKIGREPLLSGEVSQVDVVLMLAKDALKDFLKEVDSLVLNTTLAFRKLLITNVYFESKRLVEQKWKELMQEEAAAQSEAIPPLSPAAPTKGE

[4] = target: Oxysterols receptor LXR-beta (Homo sapiens, UniProt P55055); type: functional, cell-based;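 further: Cell-based luminescence dose-response assay of agonist activity at LXR, run as a confirmatory counterscreen to a daf-12 agonist screen; HEK293 cells with Gal4-LXR fusion and GAL4-driven luciferase reporter; agonist potency from rising luciferase signal of a Gal4-LXR reporter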
Sequence of Oxysterols receptor LXR-beta (P55055 whole entry, the tested form may be a part): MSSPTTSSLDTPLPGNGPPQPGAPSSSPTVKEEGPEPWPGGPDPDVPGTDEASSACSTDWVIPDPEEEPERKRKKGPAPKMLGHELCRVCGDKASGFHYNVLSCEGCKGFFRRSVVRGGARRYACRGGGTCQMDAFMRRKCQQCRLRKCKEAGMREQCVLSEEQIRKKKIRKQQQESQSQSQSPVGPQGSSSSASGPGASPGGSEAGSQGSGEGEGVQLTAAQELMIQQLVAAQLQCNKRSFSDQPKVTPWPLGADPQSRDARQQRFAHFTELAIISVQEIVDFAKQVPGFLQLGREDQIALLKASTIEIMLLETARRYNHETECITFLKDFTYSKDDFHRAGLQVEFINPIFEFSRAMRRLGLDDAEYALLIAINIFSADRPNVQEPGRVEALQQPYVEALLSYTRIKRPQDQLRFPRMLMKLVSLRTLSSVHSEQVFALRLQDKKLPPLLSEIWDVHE

cells [5] = assay: cells
[6] = inhibitors of intracellular T. cruzi replication, confirmation, NIH3T3 host cells, beta-gal luminescence (AID 2044); type: functional, cell-based;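 further: intracellular parasites grown in NIH/3T3 mouse fibroblasts as host cells; luminescent beta-galactosidase reporter signal from transgenic T. cruzi replicating inside host cells; inhibitors lower the luminescence signal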
[7] = cytotoxicity toward NIH3T3 fibroblasts, dose response, counter-screen, cell-based, ATP luminescence, mouse fibroblasts (AID 2010); type: functional;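 further: cells exposed to compound for about 90 hours before reading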
[8] = MDA-MB-231 cell growth inhibition, dose response, cytotoxicity control for RAD54 inhibitor project, CellTiter-Glo luminescence, cherry-pick (AID 651692); type: functional, cell-based
[9] = target: T1, DNA repair and recombination protein RAD54-like (Homo sapiens, UniProt Q92698); assay: inhibitors of human RAD54 branch migration, confirmation, biochemical, fluorescence, cherry-picked samples, dose series (AID 651657); type: functional
T1 sequence (Q92698 whole entry): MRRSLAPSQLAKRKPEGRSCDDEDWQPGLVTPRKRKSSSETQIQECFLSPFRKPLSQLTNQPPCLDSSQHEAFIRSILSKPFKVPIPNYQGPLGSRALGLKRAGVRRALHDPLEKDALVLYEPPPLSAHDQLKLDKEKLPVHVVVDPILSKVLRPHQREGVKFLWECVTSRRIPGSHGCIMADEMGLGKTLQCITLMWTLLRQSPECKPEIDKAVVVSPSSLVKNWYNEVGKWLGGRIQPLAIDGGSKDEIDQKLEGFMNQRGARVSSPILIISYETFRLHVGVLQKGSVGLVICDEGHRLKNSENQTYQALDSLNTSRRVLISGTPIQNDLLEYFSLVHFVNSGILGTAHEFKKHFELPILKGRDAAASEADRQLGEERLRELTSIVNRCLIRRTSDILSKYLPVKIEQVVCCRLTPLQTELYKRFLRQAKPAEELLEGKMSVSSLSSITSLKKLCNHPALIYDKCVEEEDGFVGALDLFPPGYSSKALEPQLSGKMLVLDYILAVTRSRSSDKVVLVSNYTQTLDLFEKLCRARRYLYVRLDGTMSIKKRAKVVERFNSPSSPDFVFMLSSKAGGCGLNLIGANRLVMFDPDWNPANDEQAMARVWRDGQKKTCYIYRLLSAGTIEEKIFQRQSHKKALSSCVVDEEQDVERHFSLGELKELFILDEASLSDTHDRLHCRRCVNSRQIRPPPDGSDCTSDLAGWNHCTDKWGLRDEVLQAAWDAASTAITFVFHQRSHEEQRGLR

[10] = target: T2, DNA repair protein RAD52 homolog (Homo sapiens, UniProt P43351); type: functional, biochemical
T2 sequence (P43351 whole entry): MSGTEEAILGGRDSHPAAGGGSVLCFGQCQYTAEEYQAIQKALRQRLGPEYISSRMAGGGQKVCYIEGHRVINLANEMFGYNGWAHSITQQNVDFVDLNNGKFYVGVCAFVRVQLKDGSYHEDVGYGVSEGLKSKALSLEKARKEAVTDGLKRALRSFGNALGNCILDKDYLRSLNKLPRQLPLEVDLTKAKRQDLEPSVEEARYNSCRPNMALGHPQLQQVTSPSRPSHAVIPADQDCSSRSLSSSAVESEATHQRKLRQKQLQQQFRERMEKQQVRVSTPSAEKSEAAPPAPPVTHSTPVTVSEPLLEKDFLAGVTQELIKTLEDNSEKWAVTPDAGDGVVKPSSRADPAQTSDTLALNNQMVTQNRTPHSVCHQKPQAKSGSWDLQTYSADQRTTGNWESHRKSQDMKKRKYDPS

Paired box protein Pax-8 = Paired box protein Pax-8 (Homo sapiens, UniProt Q06710); assay: inhibitors of PAX8-driven TPO luciferase reporter, dose response, RMG-I cells, cherry-pick (AID 687027); type: functional, cell-based;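 further: luciferase reporter driven by Pax8 target thyroperoxidase promoter measured by SteadyGlo luminescence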
Sequence of Paired box protein Pax-8 (Q06710 whole entry): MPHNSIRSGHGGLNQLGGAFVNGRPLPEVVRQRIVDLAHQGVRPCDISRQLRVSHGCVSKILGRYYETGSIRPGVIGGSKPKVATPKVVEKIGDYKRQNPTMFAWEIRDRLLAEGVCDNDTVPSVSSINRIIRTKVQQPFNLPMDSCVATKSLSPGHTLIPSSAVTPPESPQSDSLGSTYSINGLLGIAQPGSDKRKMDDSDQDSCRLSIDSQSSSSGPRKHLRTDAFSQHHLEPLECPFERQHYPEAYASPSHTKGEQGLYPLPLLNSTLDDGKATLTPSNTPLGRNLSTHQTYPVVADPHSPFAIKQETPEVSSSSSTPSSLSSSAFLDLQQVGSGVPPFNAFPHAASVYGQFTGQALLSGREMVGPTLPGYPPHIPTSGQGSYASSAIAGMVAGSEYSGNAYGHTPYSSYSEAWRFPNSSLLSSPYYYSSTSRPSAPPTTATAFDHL

[11] = NIH:OVCAR-3 ovarian cancer cell cytotoxicity, dose response, PAX8 inhibitor project, plate reader, dry powder samples (AID 743044); type: functional, cell-based
[12] = cytotoxicity in OVCAR8 ovarian cancer cells, dose response, PAX8 project, cell-based, plate reader, dry powder samples (AID 743197); type: functional; conditions: OVCAR-8
[13] = human group III sPLA2 inhibitors, dose response, biochemical, QFRET, IC50 (AID 743457);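 further: green fluorescence rise as the enzyme cleaves BODIPY PC-A2 in liposomes; potency for inhibition of the enzyme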
[14] = target: Long-chain-fatty-acid--AMP ligase FadD28 (Mycobacterium tuberculosis, UniProt P9WQ59); assay: Fluorescence polarization aasay to screen for inhibitors that compete for the binding of FadD28 to a bisubstrate Measured in Biochemical System Using Plate Reader - 2147-01_Inhibitor_Dose_CherryPick_Activity.; type: functional, Mycobacterium tuberculosis H37Rv
Sequence of Long-chain-fatty-acid--AMP ligase FadD28 (P9WQ59 whole entry): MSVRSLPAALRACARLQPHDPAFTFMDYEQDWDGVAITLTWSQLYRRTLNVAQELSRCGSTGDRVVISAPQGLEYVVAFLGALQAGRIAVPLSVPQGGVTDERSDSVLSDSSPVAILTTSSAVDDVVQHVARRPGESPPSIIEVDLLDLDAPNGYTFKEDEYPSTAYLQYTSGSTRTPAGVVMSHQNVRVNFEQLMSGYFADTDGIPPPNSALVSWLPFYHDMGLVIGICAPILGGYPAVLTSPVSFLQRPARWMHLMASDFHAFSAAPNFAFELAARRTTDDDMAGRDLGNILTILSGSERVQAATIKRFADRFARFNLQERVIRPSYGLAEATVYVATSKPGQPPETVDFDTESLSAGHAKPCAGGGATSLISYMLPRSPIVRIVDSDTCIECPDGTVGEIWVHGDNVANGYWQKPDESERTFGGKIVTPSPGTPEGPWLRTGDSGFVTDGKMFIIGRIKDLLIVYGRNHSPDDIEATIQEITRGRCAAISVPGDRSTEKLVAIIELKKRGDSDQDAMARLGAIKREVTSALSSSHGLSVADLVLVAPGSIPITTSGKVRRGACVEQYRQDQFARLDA

[15] = HEK293T cytotoxicity, dose response, cytotoxicity control for miR-122 modulator project, cell-based, inhibitor set, cherry-pick, set 2 (AID 720697); type: functional
[16] = Luminescence Cell-Based Dose Retest to Confirm Inhibitors of Cancer Stem Cells. [Related pubchem assays (depositor defined):AID2717, AID2721]; type: functional; conditions: Homo sapiens
[17] = target: Eukaryotic translation initiation factor 4E (Mus musculus, UniProt P63073); assay: eIF4E–eIF4G protein interaction inhibitors, dose response, biochemical, TR-FRET (AID 855); type: functional;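 further: potency for disrupting eIF4E binding to eIF4GI seen as loss of FRET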
Sequence of Eukaryotic translation initiation factor 4E (P63073 whole entry): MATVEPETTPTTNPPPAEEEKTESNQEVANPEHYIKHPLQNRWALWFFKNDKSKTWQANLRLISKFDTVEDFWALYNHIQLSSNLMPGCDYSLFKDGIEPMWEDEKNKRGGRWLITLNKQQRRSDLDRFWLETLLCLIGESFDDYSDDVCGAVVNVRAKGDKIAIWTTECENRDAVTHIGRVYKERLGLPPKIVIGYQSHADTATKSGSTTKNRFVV

cells [18] = type: functional, cell-based
[19] = target: T3, Sentrin-specific protease 8 (Homo sapiens, UniProt Q96LD8); type: functional
T3 sequence (Q96LD8 whole entry): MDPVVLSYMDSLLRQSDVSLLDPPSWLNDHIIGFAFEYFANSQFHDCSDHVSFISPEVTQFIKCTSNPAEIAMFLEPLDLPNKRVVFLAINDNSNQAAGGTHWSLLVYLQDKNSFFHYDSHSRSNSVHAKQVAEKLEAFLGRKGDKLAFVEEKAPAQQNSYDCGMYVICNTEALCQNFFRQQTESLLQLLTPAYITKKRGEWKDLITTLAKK

[20] = target: T3, Sentrin-specific protease 8; type: functional; remark: listed apart in the source
[21] = target: ADP-ribosylation factor GTPase-activating protein 1 (Rattus norvegicus, UniProt Q62848); assay: Fluorescence polarization-based biochemical high throughput dose response screening assay to identify inhibitors of ADP-ribosylation factor GTPase activating protein 1 (ARFGAP1).; type: functional
Sequence of ADP-ribosylation factor GTPase-activating protein 1 (Q62848 whole entry, the tested form may be a part): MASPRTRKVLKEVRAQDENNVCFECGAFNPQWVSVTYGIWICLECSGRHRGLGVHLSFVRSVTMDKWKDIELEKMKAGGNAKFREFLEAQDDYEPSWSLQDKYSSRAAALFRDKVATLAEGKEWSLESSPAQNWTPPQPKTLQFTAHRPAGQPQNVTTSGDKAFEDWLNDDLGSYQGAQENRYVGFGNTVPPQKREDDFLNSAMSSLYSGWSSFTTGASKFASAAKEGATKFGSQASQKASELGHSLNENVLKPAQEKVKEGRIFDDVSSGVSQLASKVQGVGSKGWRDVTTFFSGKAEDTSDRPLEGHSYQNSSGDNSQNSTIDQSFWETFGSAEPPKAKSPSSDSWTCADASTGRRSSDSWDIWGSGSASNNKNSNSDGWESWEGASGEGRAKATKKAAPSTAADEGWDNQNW

[22] = target: Arf-GAP with SH3 domain, ANK repeat and PH domain-containing protein 1 (Homo sapiens, UniProt Q9ULH1); type: functional;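 further: biochemical fluorescence polarization dose–response screen measuring inhibition of ASAP1; ASAP1 GAP domain stimulating GTP hydrolysis by truncated human ARF1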
Sequence of Arf-GAP with SH3 domain, ANK repeat and PH domain-containing protein 1 (Q9ULH1 whole entry, the tested form may be a part): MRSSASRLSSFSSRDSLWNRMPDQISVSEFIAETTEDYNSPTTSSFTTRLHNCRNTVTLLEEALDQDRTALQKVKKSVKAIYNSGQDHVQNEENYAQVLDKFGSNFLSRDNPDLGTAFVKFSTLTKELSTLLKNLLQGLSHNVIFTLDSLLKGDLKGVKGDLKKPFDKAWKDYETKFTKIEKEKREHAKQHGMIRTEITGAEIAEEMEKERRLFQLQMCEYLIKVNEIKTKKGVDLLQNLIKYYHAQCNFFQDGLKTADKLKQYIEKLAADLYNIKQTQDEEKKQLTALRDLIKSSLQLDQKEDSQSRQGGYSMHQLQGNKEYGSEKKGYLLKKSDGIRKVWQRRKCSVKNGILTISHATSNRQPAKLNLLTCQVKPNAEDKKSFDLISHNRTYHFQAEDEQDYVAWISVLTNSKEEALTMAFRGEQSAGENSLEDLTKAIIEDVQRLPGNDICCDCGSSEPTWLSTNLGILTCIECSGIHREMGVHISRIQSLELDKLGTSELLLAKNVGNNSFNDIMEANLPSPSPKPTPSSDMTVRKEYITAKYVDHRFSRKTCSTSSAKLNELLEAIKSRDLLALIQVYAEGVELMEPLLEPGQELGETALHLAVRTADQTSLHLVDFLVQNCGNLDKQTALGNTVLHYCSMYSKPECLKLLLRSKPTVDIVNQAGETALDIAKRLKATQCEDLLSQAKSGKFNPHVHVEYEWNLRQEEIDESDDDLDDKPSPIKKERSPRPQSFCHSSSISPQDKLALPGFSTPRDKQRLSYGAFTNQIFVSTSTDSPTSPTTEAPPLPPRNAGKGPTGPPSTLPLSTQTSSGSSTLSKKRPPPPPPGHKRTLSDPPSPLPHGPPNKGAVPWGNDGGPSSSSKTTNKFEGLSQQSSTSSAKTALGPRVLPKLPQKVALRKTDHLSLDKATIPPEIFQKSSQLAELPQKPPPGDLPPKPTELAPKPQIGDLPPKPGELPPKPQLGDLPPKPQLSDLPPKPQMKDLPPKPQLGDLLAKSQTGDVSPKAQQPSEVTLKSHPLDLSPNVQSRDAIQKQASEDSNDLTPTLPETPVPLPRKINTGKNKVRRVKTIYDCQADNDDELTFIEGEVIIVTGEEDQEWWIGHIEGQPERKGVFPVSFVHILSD

[23] = target: Photoreceptor-specific nuclear receptor (Homo sapiens, UniProt Q9Y5X4); type: functional, cell-based;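 further: CHO-S cells with Gal4-NCOR and VP16-NR2E3 two-hybrid luciferase reporter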
Sequence of Photoreceptor-specific nuclear receptor (Q9Y5X4 whole entry, the tested form may be a part): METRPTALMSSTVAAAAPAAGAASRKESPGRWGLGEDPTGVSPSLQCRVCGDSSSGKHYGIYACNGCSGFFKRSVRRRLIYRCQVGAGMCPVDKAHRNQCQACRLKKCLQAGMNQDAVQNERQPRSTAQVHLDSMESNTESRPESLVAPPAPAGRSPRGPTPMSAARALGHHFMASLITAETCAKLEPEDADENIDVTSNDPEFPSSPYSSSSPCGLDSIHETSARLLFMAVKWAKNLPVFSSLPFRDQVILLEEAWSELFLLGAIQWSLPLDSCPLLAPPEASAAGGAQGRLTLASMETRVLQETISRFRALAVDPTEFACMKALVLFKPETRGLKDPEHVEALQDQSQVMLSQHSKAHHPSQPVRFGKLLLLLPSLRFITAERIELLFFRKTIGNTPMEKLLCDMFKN

[24] = HeLa cell cytotoxicity, dose response, cytotoxicity control for MgcRacGAP inhibitor project (AID 624300); type: functional
[25] = target: T4, Rac GTPase-activating protein 1 (Homo sapiens, UniProt Q9H0H5); assay: MgcRacGAP GTPase-activating activity inhibitors, confirmation, biochemical, ADP Hunter fluorescence, primary and confirmatory (AID 624330); type: functional
T4 sequence (Q9H0H5 whole entry): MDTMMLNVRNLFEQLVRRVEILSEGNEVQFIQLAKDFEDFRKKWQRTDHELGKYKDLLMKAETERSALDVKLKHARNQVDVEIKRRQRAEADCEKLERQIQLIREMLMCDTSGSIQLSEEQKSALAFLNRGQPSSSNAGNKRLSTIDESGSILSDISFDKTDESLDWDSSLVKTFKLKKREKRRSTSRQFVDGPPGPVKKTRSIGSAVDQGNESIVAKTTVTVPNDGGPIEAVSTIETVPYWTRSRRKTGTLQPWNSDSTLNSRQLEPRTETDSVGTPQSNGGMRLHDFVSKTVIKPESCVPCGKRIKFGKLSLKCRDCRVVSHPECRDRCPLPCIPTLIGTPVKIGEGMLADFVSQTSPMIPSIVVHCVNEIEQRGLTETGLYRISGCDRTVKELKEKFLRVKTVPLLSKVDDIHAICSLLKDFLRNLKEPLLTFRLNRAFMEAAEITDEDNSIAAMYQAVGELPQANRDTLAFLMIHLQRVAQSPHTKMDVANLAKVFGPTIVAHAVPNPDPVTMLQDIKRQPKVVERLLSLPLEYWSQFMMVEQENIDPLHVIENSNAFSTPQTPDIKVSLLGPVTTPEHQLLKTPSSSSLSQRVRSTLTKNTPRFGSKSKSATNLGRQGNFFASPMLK

[26] = target: T5, Sentrin-specific protease 1 (Homo sapiens, UniProt Q9P0U3); assay: potency of human SENP1 inhibitors, dose response, biochemical, kinetic FRET (AID 651697); type: functional; conditions: read-out: IC50_Mean
T5 sequence (Q9P0U3 whole entry): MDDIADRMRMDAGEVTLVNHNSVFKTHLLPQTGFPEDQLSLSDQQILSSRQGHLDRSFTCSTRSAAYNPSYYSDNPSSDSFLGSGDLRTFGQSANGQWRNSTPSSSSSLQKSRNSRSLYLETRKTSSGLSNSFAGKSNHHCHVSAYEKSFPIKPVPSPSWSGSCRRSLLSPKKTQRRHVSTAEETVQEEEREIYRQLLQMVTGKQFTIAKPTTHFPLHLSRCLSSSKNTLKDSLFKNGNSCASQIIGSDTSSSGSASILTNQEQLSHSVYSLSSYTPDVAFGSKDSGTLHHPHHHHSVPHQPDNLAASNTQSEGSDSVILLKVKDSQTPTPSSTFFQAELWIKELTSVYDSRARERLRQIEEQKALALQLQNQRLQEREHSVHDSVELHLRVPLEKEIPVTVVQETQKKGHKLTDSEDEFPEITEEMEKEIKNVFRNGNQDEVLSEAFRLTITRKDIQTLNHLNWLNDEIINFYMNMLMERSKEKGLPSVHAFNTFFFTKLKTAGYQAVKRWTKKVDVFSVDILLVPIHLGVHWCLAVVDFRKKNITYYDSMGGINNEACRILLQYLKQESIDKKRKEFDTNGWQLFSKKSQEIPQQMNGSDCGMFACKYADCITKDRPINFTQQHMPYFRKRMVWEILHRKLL

[27] = target: T5, Sentrin-specific protease 1; assay: Dose response confirmation of small molecule inhibitors of the catalytic domain of the SUMO protease, SENP1 in a FRET assay.; type: functional; conditions: read-out: IC50_Mean

Sequence of Disintegrin and metalloproteinase domain-containing protein 17 (P78536 whole entry, the tested form may be a part): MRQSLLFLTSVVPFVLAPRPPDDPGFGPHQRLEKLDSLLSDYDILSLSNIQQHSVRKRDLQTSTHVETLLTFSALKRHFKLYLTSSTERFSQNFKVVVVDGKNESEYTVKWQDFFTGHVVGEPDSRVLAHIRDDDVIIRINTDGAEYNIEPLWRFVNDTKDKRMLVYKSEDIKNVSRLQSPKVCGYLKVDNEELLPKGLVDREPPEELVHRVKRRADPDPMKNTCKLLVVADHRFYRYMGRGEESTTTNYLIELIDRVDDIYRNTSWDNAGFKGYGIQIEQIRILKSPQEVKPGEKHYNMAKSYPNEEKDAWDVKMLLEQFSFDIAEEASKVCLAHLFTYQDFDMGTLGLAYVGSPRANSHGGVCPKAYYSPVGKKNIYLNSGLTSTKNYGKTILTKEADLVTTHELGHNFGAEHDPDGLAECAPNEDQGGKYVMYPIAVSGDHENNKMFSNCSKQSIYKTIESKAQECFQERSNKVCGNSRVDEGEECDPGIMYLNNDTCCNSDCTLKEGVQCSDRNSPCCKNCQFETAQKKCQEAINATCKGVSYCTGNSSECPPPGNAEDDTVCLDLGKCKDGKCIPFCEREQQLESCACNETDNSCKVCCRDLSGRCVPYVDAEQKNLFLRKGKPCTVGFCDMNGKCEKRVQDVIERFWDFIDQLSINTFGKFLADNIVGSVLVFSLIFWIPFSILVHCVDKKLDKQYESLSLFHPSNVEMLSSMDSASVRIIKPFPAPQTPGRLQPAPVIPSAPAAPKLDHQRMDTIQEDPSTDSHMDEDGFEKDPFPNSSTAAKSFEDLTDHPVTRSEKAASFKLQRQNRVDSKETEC

CCc1nc2ccc(C(=O)Nc3ccc4c(c3)OCC(=O)N4)cn2c1N(CC)Cc1cccc(Br)c1
IC50 [1]: > 69.5 µM (inactive) | IC50 [2]: > 69.5 µM (inactive)

C=CCC[C@@H](Cc1ccc(F)cc1)C(=O)OC[C@@H]1CCCN1C(=O)[C@H](CC=C)CC(=O)N[C@H](CO)Cc1ccccc1
IC50 [1]: > 69.5 µM (inactive) | IC50 [2]: 15.2 µM (inactive)

C=CCNC1=NC(c2ccccc2C(F)(F)F)C(C(=O)OC)=C(C)N1Cc1ccc(C(F)(F)F)cc1 (stereo not given)
IC50 [3]: > 96.6 µM (inactive)

Cc1cc2c(cc1C)NP(=S)(c1ccccc1)N2
EC50 [4]: > 67.6 µM (inactive) | EC50 (cells [5]): > 67.6 µM (inactive)

CCN(CC)CCCN(C(=O)c1ccco1)c1nc(-c2ccc(Cl)cc2)cs1
EC50 [6]: 0.87 µM (active) | EC50 [7]: 9.32 µM (active) | AC50 [8]: 22.9 µM (active) | AC50 [9]: 45.1 µM (active) | AC50 [10]: 19.2 µM (active)

C[C@H](CO)N1C[C@H](C)[C@@H](CN(C)Cc2ccc(Cl)c(Cl)c2)Oc2ccc(NS(=O)(=O)c3ccccc3)cc2CC1=O
AC50 (Paired box protein Pax-8): 9.45 µM (active) | AC50 [11]: 39.7 µM (active) | AC50 [12]: 67.9 µM (active)

CC(C)Oc1ccc(CC(=O)NN=C(S)Nc2ccccc2)cc1
IC50 [13]: > 122 µM (inactive)

Cn1c(=O)c2cc(NC(=S)NC3CCCCC3)ccc2n1Cc1ccc(Cl)cc1
AC50 [14]: 58 µM (active)

COc1cc2c(cc1NC(=O)c1ccccc1-c1ccccc1C(=O)O)-c1ccccc1C2
AC50 [14]: > 100 µM (inactive)

Fc1cccc(Cl)c1/C=C/c1cnc2ccccc2n1
EC50 [4]: > 67.5 µM (inactive) | EC50 (cells [5]): > 67.5 µM (inactive)

Cc1c(Cl)c(C(=O)NN=C(S)Nc2ccccc2)nn1C
IC50 [13]: > 122 µM (inactive)

CCCCN1C=C(C(=O)OC)C(c2ccccc2C(F)(F)F)C(C(=O)OC)=C1
AC50 [15]: 8.63 µM (active)

COc1ccc(CN2C(=O)c3cccnc3C2Nc2cc(Cl)ccc2OC)cc1 (stereo not given)
AC50 [16]: > 195 µM (inactive) | IC50 [17]: 14.4 µM (active) | IC50 [3]: 16.1 µM (inactive)

CCc1nnc(NS(=O)(=O)c2ccc(N/C=C3/C(=O)NC(=O)N(c4ccccc4)C3=O)cc2)s1
IC50 (cells [18]): 64.4 µM (inactive)

COc1ccc(C(=O)N2C=Cc3ccccc3C2C#N)cc1 (stereo not given)
IC50 [19]: > 100 µM (inactive) | IC50 [20]: 5.74 µM (active)

O=C(NCc1ccncc1)C(=O)N/N=C/c1ccc(OCc2ccccc2)cc1
IC50 [21]: 10.3 µM (inactive) | IC50 [22]: 13.2 µM (inactive)

C[C@H]1CCC/C=C/[C@@H]2C[C@H](O)C[C@H]2[C@H](O)[C@H]([S+]([O-])c2ccc(O)cc2)CC(=O)O1 (stereo not given in full)
IC50 [23]: 2.05 µM (active) | CC50 [24]: 4.03 µM (active) | IC50 [25]: 231 µM (active)

Cc1c(N2C(=O)/C(=C/c3ccc(N(C)C)cc3)N(C)C2=S)c(=O)n(-c2ccccc2)n1C
IC50 [26]: 19.5 µM (active) | IC50 [27]: 36.2 µM (inactive)
